Experimental data as given in US20240246908A1 (ORION CORPORATION, priority 2021, published 2024).

These compounds were tested on YAP-TEAD (assay: TEAD inhibition, Hippo Pathway TEAD Reporter MCF-7 luciferase assay). Details: Homo sapiens, MCF7, 24 h, Hippo Pathway TEAD Reporter MCF-7 cells, luciferase activity after 24 h; read-out: IC50 of the test compounds on YAP-TEAD inhibition (Group).
Type: cell-based
Method: TEAD inhibition was assayed using Hippo Pathway TEAD Reporter—MCF-7 cell line (BPS Bioscience, Catalog #: 60618) which contains firefly luciferase gene under the control of TEAD responsive elements. In the cell line, YAP1 remains in the nucleus inducing constitutive expression of luciferase reporter. Amount of expressed luciferase was detected using ONE-Glo Luciferase Assay System (Promega) and measuring plates with Enspire Multimode Plate Reader (PerkinElmer).
Hippo Pathway TEAD Reporter—MCF-7 cells were plated on white/clear Poly-D-Lysine coated 384 plates (Corning #356660) at the density of 8500 cells/well. Next day test compounds (11 concentrations with 4 replicates) and DMSO control (0.1%) were added to the plate. After 24 h cells were lysed and luciferase activity was measured. The half maximal inhibitory concentration (IC50) of the test compounds on YAP-TEAD inhibition was determined.

Structure (SMILES)	IC50 [nM]
CCN1C(=O)CCC1C(=O)Nc1cc(Oc2ccc(C(F)(F)F)cc2)ccc1OC (stereo not shown) [Compound 68, 1-Ethyl-N-(2-methoxy-5-(4-(trifluoromethyl)phenoxy)phenyl)-5-oxopyrrolidine-2-carboxamide]	< 50
COc1ccc(Oc2ccc(C(F)(F)F)cc2)cc1NC(=O)C1CS(=O)(=O)N1C (stereo not shown) [Compound 71, N-(2-Methoxy-5-(4-(trifluoromethyl)phenoxy)phenyl)-2-methyl-1,2-thiazeti-dine-3-carboxamide 1,1-dioxide]	50 to 300
COc1cc(F)c(COc2cccc(F)c2)cc1NC(=O)C1CCC(=O)N1 (stereo not shown) [Compound 73, N-(4-Fluoro-5-((3-fluorophenoxy)methyl)-2-methoxyphenyl)-5-oxopyrrolidine-2-carboxamide]	50 to 300
CN1C(=O)CCC1C(=O)Nc1cc(Oc2ccc(C(F)(F)F)cc2)ccc1F (stereo not shown) [Compound 75, N-(2-Fluoro-5-(4-(trifluoromethyl)phenoxy)phenyl)-1-methyl-5-oxopyrrolidine-2-carboxamide]	< 50
O=C1CCC(C(=O)Nc2cc(Oc3ccc(C(F)(F)F)cc3)ccc2F)N1 (stereo not shown) [Compound 76, N-(2-Fluoro-5-(4-(trifluoromethyl)phenoxy)phenyl)-5-oxopyrrolidine-2-carboxamide]	< 50
COc1ccc(Oc2cc(F)cc(F)c2)cc1NC(=O)C1CCC(=O)N1C (stereo not shown) [Compound 78, N-(5-(3,5-Difluorophenoxy)-2-methoxyphenyl)-1-methyl-5-oxopyrrolidine-2-carboxamide]	50 to 300
O=C1CCC2(C(=O)Nc3cc(Oc4ccc(C(F)(F)F)cc4)cc4c3OCCO4)CCCN12 (stereo not shown) [Compound 80, 3-Oxo-N-(7-(4-(trifluoromethyl)phenoxy)-2,3-dihydrobenzo[b][1,4]dioxin-5-yl)tetrahydro-1H-pyrrolizine-7a(5H)-carboxamide]	50 to 300
COc1ccc(Oc2ccc(F)c(F)c2)cc1NC(=O)C1CCC(=O)N1C(C)C (stereo not shown) [Compound 82, N-(5-(3,4-Difluorophenoxy)-2-methoxyphenyl)-1-isopropyl-5-oxopyrrolidine-2-carboxamide]	50 to 300
CN1C(=O)CCC1C(=O)Nc1cc(Oc2ccc(C(F)(F)F)cc2)ccc1-c1nnco1 (stereo not shown) [Compound 83, N-(2-(1,3,4-Oxadiazol-2-yl)-5-(4-(trifluoromethyl)phenoxy)phenyl)-1-methyl-5-oxopyrrolidine-2-carboxamide]	50 to 300
CN1C(=O)CCC1C(=O)Nc1cc(Oc2cccc(C(F)(F)F)c2)ccc1-c1nnco1 (stereo not shown) [Compound 84, N-(2-(1,3,4-Oxadiazol-2-yl)-5-(3-(trifluoromethyl)phenoxy)phenyl)-1-methyl-5-oxopyrrolidine-2-carboxamide]	301 to 2000
CN1C(=O)CCC1C(=O)Nc1cc(Oc2ccc(F)c(F)c2)ccc1-c1ccn(C)n1 (stereo not shown) [Compound 85, N-(5-(3,4-Difluorophenoxy)-2-(1-methyl-1H-pyrazol-3-yl)phenyl)-1-methyl-5-oxopyrrolidine-2-carboxamide]	301 to 2000
COc1ccc(COc2ccc(F)c(F)c2)cc1NC(=O)C1COC(=O)N1C (stereo not shown) [Compound 89, N-(5-((3,4-Difluorophenoxy)methyl)-2-methoxyphenyl)-3-methyl-2-oxo-oxazolidine-4-carboxamide]	50 to 300
COc1ccc(COc2cccc(F)c2)cc1NC(=O)C1COC(=O)N1C (stereo not shown) [Compound 90, N-(5-((3-Fluorophenoxy)methyl)-2-methoxyphenyl)-3-methyl-2-oxo-oxazolidine-4-carboxamide]	50 to 300
COc1ccc(Oc2ccc(C(F)(F)F)cc2)cc1NC(=O)C1CCC(=S)N1C (stereo not shown) [Compound 91, N-(2-Methoxy-5-(4-(trifluoromethyl)phenoxy)phenyl)-1-methyl-5-thioxo-pyrrolidine-2-carboxamide]	< 50
COc1ccc(Oc2ccc(C(F)(F)F)cc2)cc1NC(=O)C1CCC(=S)N1 (stereo not shown) [Compound 92, N-(2-Methoxy-5-(4-(trifluoromethyl)phenoxy)phenyl)-5-thioxopyrrolidine-2-carboxamide]	< 50
COc1ccc(Oc2ccc(F)c(F)c2)cc1NC(=O)[C@H]1CCC(=O)N1C [Compound 93, (R)—N-(5-(3,4-Difluorophenoxy)-2-methoxyphenyl)-1-methyl-5-oxopyrrolidine-2-carboxamide]	< 50

Now from value to compound:

IC50 [nM]	Structure (SMILES)
< 50	O=C1CCC(C(=O)Nc2cc(Oc3ccc(C(F)(F)F)cc3)cc3c2OCCO3)N1 (stereo not shown) [Compound 66, 5-Oxo-N-(7-(4-(trifluoromethyl)phenoxy)-2,3-dihydrobenzo[b][1,4]dioxin-5-yl)pyrrolidine-2-carboxamide]
< 50	CN1C(=O)CCC1C(=O)Nc1cc(Oc2ccc(C(F)(F)F)cc2)cc2c1OCCO2 (stereo not shown) [Compound 67, 1-Methyl-5-oxo-N-(7-(4-(trifluoromethyl)phenoxy)-2,3-dihydrobenzo[b][1,4]-dioxin-5-yl)pyrrolidine-2-carboxamide]
< 50	COc1ccc(Oc2ccc(C(F)(F)F)cc2)cc1NC(=O)[C@H]1CCC(=O)N1C [Compound 69, (R)—N-(2-Methoxy-5-(4-(trifluoromethyl)phenoxy)phenyl)-1-methyl-5-oxo-pyrrolidine-2-carboxamide]
< 50	COc1ccc(Oc2ccc(C(F)(F)F)cc2)cc1NC(=O)[C@@H]1CCC(=O)N1C [Compound 70, (S)—N-(2-Methoxy-5-(4-(trifluoromethyl)phenoxy)phenyl)-1-methyl-5-oxo-pyrrolidine-2-carboxamide]
301 to 2000	COc1ccc(Oc2cccc(C(F)(F)F)c2)cc1NC(=O)C1CS(=O)(=O)N1C (stereo not shown) [Compound 72, N-(2-Methoxy-5-(3-(trifluoromethyl)phenoxy)phenyl)-2-methyl-1,2-thiaze-tidine-3-carboxamide 1,1-dioxide]
50 to 300	COc1ccc(Nc2ccc(C(F)(F)F)cc2)cc1NC(=O)C1CCC(=O)N1C (stereo not shown) [Compound 74, N-(2-Methoxy-5-((4-(trifluoromethyl)phenyl)amino)phenyl)-1-methyl-5-oxo-pyrrolidine-2-carboxamide]
50 to 300	COc1ccc(Oc2cc(F)cc(F)c2)cc1NC(=O)C1CCC(=O)N1C(C)=O (stereo not shown) [Compound 77, 1-Acetyl-N-(5-(3,5-difluorophenoxy)-2-methoxyphenyl)-5-oxopyrrolidine-2-carboxamide]
301 to 2000	COc1ccc(Oc2cc(F)ccc2F)cc1NC(=O)C1CCC(=O)N1 (stereo not shown) [Compound 79, N-(5-(2,5-Difluorophenoxy)-2-methoxyphenyl)-5-oxopyrrolidine-2-carboxamide]
< 50	COc1ccc(Oc2ccc(C(F)(F)F)cc2)cc1NC(=O)C1CCC(=O)N1C(C)C (stereo not shown) [Compound 81, 1-Isopropyl-N-(2-methoxy-5-(4-(trifluoromethyl)phenoxy)phenyl)-5-oxo-pyrrolidine-2-carboxamide]
50 to 300	CN1C(=O)CCC1C(=O)Nc1cc(Oc2ccc(F)c(F)c2)ccc1-c1ccnn1C (stereo not shown) [Compound 86, N-(5-(3,4-Difluorophenoxy)-2-(1-methyl-1H-pyrazol-5-yl)phenyl)-1-methyl-5-oxopyrrolidine-2-carboxamide]
< 50	COc1ccc(Oc2ccc(C(F)(F)F)cc2)cc1NC(=O)C1COC(=O)N1C (stereo not shown) [Compound 87, N-(2-Methoxy-5-(4-(trifluoromethyl)phenoxy)phenyl)-3-methyl-2-oxo-oxazolidine-4-carboxamide]
< 50	COc1ccc(Oc2ccc(F)c(F)c2)cc1NC(=O)C1COC(=O)N1C (stereo not shown) [Compound 88, N-(5-(3,4-Difluorophenoxy)-2-methoxyphenyl)-3-methyl-2-oxooxazolidine-4-carboxamide]
